“And” between values parts separate entries of the source, which are not always exact repeats. Equal entries are not always repeated.
How the values were obtained:
[1] = tested on: Anti-OAcGD3 antibody; assay: ELISA of immobilized MAP-form peptides with control anti-OAcGD3 antibody; assay type: binding; details: MAP form 100 ng/well
Procedure: A 0.1M NaHCO3 solution containing a GD3-mimetic peptide of the invention in the above MAP form (100 ng/100 μL) was added to the wells of a 96-well micro-titer plate, for immobilization at room temperature for one hour. Subsequently, in a manner similar to the ELISA method employed in Example 2, binding affinity of the GD3-mimetic peptide to GD3 antibody 4F6 was investigated.
Anti-GD2 antibody and anti-OAcGD3 antibody (Cerato, E., et al., Hybridoma, 16(4), 307-316 (1997)) were used as controls (these antibodies were kindly provided by from Dr. Portoukalian).

[2] = Titer against GD3 (ELISA) of antiserum from mice immunized with MAP peptides (Example 4); assay type: in vivo, mice (C57BL/6); details: for reactivity of antiserum with GD3 (ELISA absorbance): individual mice
Procedure: Four species of GD3-mimetic peptide (MAP) obtained in Example 3 (2) was dissolved in PBS so as to attain a concentration of 200 μg/mL. The solution was added to Freund's complete (or incomplete) adjuvant (1:1, by volume), to thereby prepare an emulsion.
Eight mice (C57BL/6) were immunized by subcutaneous administration of the above emulsion (0.2 mL/mouse, in one administration, […]). Administration was performed every two weeks (for the second and subsequent administrations, Freund's incomplete adjuvant was used). After one week following respective administrations, blood was collected from the tail of each mouse, to thereby yield antiserum.
The antiserum obtained directly after the first administration will be referred to “1-st,” that obtained after the second administration will be referred to “2-nd,” and that obtained after the third administration will be referred to “3-rd.”
The titer, against GD3, of each of the antiserum samples (3×8 mice=24 samples) obtained in the (1) above was measured through ELISA as described below.
The thus-obtained purified GD3 was dissolved in methanol, whereby a GD3 solution having a concentration of 10 μg/mL was prepared. The GD3 solution was added to the wells of a 96-well micro-titer plate in amounts of 10 μL per well (which corresponds to 100 ng GD3 per well), and methanol was evaporated. Subsequently, a blocking solution (TBS supplemented with 1% BSA) was added to the wells in amounts of 50 μL per well, for blocking at 37° C. for 4 hours.
The supernatant was discarded. Each of the antiserum samples obtained in (1) above was diluted 100-fold, 400-fold, or 1,600 fold with the above-mentioned blocking solution. The diluted antiserum (50 μL) was added to each well for reaction at 4° C. overnight. The well was washed six times with TBS, and thereafter, HRP-labeled […] diluted 5,000-fold with the blocking solution was added (50 μL per well) for reaction for 2 hours at room temperature. The well was washed four times with TBS, and thereafter, enzymatic activity (peroxidase) of the well was detected with TMB solution (50 μL). The reaction was stopped with 1N HCl (50 μL), and the value corresponding to “420 nm-620 nm” was calculated.
A control sample was prepared as follows. […] The synthesized peptide was administered to a mouse for immunization, and the obtained antiserum served as a control sample. The titer of the control sample was obtained in a manner similar to that described above. (However, the number of provided mice was five, and only a 100-fold diluted solution was used.) This control peptide sample was also used in the form of MAP as described above.

[3] = tested on: binding between GD3 and 4F6 (anti-GD3 antibody); assay: Inhibition by immobilized MAPs of binding between GD3 and 4F6 (Example 5(3), FIG. 4); design: species or system mouse; details: immobilized MAP or GD3 absorbs 4F6
Procedure: (3) The binding affinity shown in FIG. 3 was investigated in another method. Briefly, MAP samples having a variety of concentrations shown on the X-axis in FIG. 4 were provided. Each sample was immobilized onto the wells of a 96-well plate, and the wells were allowed to react with 4F6 (100 μL/well) at 4° C. overnight. On the following day, the supernatant (80 μL) was collected and added to the wells of another plate to which GD3 had been immobilized in advance (100 ng/well) for reaction at room temperature for 2 hours. After completion of reaction, the amount of antibody 4F6 that had been condensed with GD3 (i.e., that had not been absorbed by MAP) was detected and quantitatively determined through the method described (2) above, whereby inhibitory effect of MAP on binding of GD3 to 4F6 was investigated. The test was performed in triplicate, and the values in the graph are “mean ±SD.”

[4] = tested on: T-cell-rich lymphocytes / IL-2-dependent CTLL2 cells; assay: Cell response test: IL-2 activity (3H thymidine up-take of CTLL2 cells) in supernatant of spleen cells of mice immunized with GD3; assay type: cell-based, mouse; details: for IL-2 production by T-cell-rich lymphocytes: lymphocytes from GD3-immunized mouse; for 3H Thymidine up-take into CTLL2 cells, mean ± SE (4 wells): mice immunized with GD3
Procedure: Similar to the case of immunization with R4-KLH, antiserum samples were also prepared through immunization with GD3 (30 μg).
The spleen aseptically removed from each of the above-immunized mice was minced in a 10% FCS-supplemented RPMI 1640 medium. By use of a nylon wool column, T-cell-rich lymphocytes were prepared and the cells were counted. The above medium containing the cells in an amount of 10^5 cells per 150 μL was added to each of the wells of a culture plate. PHA was added so as to attain a final concentration of 1 μg/mL. A peptide of the present invention or any of different gangliosides in PBS was added, and the mixture was incubated for 96 hours. A supernatant (100 μL) was obtained from each well. The IL-2 activity of the supernatant was determined through use of IL-2-dependent mouse cells, CTLL2. Briefly, the supernatant (100 μL) diluted 2 to 50-fold with a medium was added to the wells in an amount of 10^4 CTLL2 cells/well, followed by incubation at 37° C. for 48 hours. Subsequently, 3H-thymidine (0.5 μCi) was added to each well, followed by incubation for 6 hours. CTLL2 cells were recovered on a paper filter and counted for 3H.

[5] = antiserum 1st (after first administration), dilution factor 1/100, MAP 5 μg/mouse s.c.
[6] = antiserum 1st, dilution factor 1/400
[7] = antiserum 1st, dilution factor 1/1600
[8] = antiserum 2nd (after second administration), dilution factor 1/100
[9] = antiserum 2nd, dilution factor 1/400
[10] = antiserum 2nd, dilution factor 1/1600
[11] = antiserum 3rd (after third administration), dilution factor 1/100
[12] = antiserum 3rd, dilution factor 1/400
[13] = antiserum 3rd, dilution factor 1/1600
[14] = stimulant 1 μg/ml, supernatant dilution 1/20
[15] = stimulant 1 μg/ml, supernatant dilution 1/50
[16] = stimulant 1 μg/ml, supernatant dilution ½
[17] = stimulant 1 μg/ml, supernatant dilution ⅕
[18] = stimulant 2 μg/ml, supernatant dilution 1/20
[19] = stimulant 2 μg/ml, supernatant dilution 1/50
[20] = stimulant 2 μg/ml, supernatant dilution ½
[21] = stimulant 2 μg/ml, supernatant dilution ⅕
[22] = stimulant 5 μg/ml, supernatant dilution 1/20
[23] = stimulant 5 μg/ml, supernatant dilution 1/50
[24] = stimulant 5 μg/ml, supernatant dilution ½
[25] = stimulant 5 μg/ml, supernatant dilution ⅕

Sequence	ELISA absorbance, Anti-OAcGD3 antibody ([1]; Serum % 12.50%)	ELISA absorbance, Anti-OAcGD3 antibody ([1]; Serum % 25%)	ELISA absorbance, Anti-OAcGD3 antibody ([1]; Serum % 50%)	ELISA absorbance, Anti-OAcGD3 antibody ([1]; Serum % 100%)	reactivity of antiserum with GD3 (ELISA absorbance) [2, 5]	reactivity of antiserum with GD3 (ELISA absorbance) [2, 6]	reactivity of antiserum with GD3 (ELISA absorbance) [2, 7]	reactivity of antiserum with GD3 (ELISA absorbance) [2, 8]	reactivity of antiserum with GD3 (ELISA absorbance) [2, 9]	reactivity of antiserum with GD3 (ELISA absorbance) [2, 10]	reactivity of antiserum with GD3 (ELISA absorbance) [2, 11]	reactivity of antiserum with GD3 (ELISA absorbance) [2, 12]	reactivity of antiserum with GD3 (ELISA absorbance) [2, 13]	inhibition of GD3 binding to 4F6 by immobilized sample (words, FIG. 4) [3]	IL-2 production by T-cell-rich lymphocytes [4]	3H Thymidine up-take into CTLL2 cells, mean ± SE (4 wells) [4, 14]	3H Thymidine up-take into CTLL2 cells, mean ± SE (4 wells) [4, 15]	3H Thymidine up-take into CTLL2 cells, mean ± SE (4 wells) [4, 16]	3H Thymidine up-take into CTLL2 cells, mean ± SE (4 wells) [4, 17]	3H Thymidine up-take into CTLL2 cells, mean ± SE (4 wells) [4, 18]	other results
RHAYRSMAEWGFLYS (RHAYRSMAQWGFLYS) [GD3R4, tested as phage clone, MAP form or peptide]	0.045	0.043	0.047	0.061	0.071 and 0.247 and 0.086 (2×) and 0.08 and 0.063 and 0.082 and 0.042	0.047 and 0.108 and 0.033 and 0.041 and 0.034 and 0.037 and 0.032 and 0.021	0.014 (2×) and 0.052 and 0.009 and 0.008 and 0.006 and 0.012 and 0.007	0.08 and 0.164 and 0.195 and 0.153 and 0.124 and 0.147 and 0.05 and 0.122	0.07 and 0.114 and 0.128 and 0.093 and 0.106 and 0.079 and 0.057 and 0.058	0.022 and 0.026 and 0.062 and 0.033 and 0.031 and 0.041 and 0.013 and 0.019	0.088 and 0.176 and 0.253 and 0.19 and 0.168 and 0.113 and 0.147 and 0.116	0.042 and 0.093 and 0.111 and 0.104 and 0.098 and 0.045 and 0.061 and 0.053	0.008 and 0.029 and 0.026 and 0.022 and 0.039 and 0.013 (2×) and 0.024	inhibit GD3 from binding to the antibody	production of IL-2 has been confirmed	1994 ± 348	881 ± 127	5867 ± 1213	3418 ± 749	3248 ± 613	reactivity of antiserum with GD3 ([2]; peptide used as immunogen (MAP)): high reactivity with GD3; 3H Thymidine up-take into CTLL2 cells, mean ± SE (4 wells) [4, 19]: 1274 ± 156; 3H Thymidine up-take into CTLL2 cells, mean ± SE (4 wells) [4, 20]: 12671 ± 1643; 3H Thymidine up-take into CTLL2 cells, mean ± SE (4 wells) [4, 21]: 8349 ± 1014; 3H Thymidine up-take into CTLL2 cells, mean ± SE (4 wells) [4, 22]: 7526 ± 839; 3H Thymidine up-take into CTLL2 cells, mean ± SE (4 wells) [4, 23]: 2684 ± 387; 3H Thymidine up-take into CTLL2 cells, mean ± SE (4 wells) [4, 24]: 14237 ± 1884; 3H Thymidine up-take into CTLL2 cells, mean ± SE (4 wells) [4, 25]: 11358 ± 1563
GLAPPDYAERFELLS [GD3R3, tested as phage clone, MAP form or peptide]	0.031	0.026	0.031	0.044	0.105 and 0.062 (2×) and 0.098 and 0.051 and 0.04 and 0.165 and 0.169	0.077 and 0.004 and 0.048 and 0.016 and 0.026 and 0.067 and 0.071 and 0.083	0.009 and 0.016 and 0.006 and 0.023 and 0.003 and 0.031 and 0.015 and 0.017	0.116 and 0.098 and 0.08 (2×) and 0.165 and 0.132 and 0.135 and 0.179	0.078 and 0.079 and 0.112 and 0.118 and 0.088 (2×) and 0.076 and 0.054	0.025 (2×) and 0.034 and 0.022 and 0.027 and 0.018 and 0.07 and 0.024	0.126 and 0.143 and 0.069 and 0.189 (2×) and 0.073 and 0.098 and 0.047	0.039 and 0.032 and 0.028 and 0.073 and 0.033 and 0.03 and 0.023 and 0.022	0.027 and 0.026 and 0.018 (3×) and 0.017 and 0.013 and 0.016	inhibit GD3 from binding to the antibody	production of IL-2 has been confirmed	1153 ± 246	571 ± 104	4066 ± 853	2654 ± 486	1540 ± 467	3H Thymidine up-take into CTLL2 cells, mean ± SE (4 wells) [4, 19]: 749 ± 118; 3H Thymidine up-take into CTLL2 cells, mean ± SE (4 wells) [4, 20]: 5791 ± 1154; 3H Thymidine up-take into CTLL2 cells, mean ± SE (4 wells) [4, 21]: 3243 ± 634; 3H Thymidine up-take into CTLL2 cells, mean ± SE (4 wells) [4, 22]: 1566 ± 328; 3H Thymidine up-take into CTLL2 cells, mean ± SE (4 wells) [4, 23]: 761 ± 102; 3H Thymidine up-take into CTLL2 cells, mean ± SE (4 wells) [4, 24]: 7536 ± 1247; 3H Thymidine up-take into CTLL2 cells, mean ± SE (4 wells) [4, 25]: 3528 ± 543
